In the OligoGym collection:
Several values for one entry are separate records, joined by “and”; a condition that tells them apart may be missing. Equal entries are not always repeated. After the bases stand the sugars from the 5' end (letter, count) and the backbone: PS all phosphorothioate, else s phosphorothioate and o phosphodiester by linkage. Methylation of C is not given here. e = 2'-O-(2-methoxyethyl) (MOE); k = constrained ethyl (cEt); d = 2'-deoxy (DNA)

Target: IRF4
Conditions: ASO

## GGAAGTTTACACTGGA (sugars k3 d9 k3 e1, PS)
MM.1R, 0.074 µM
  target mRNA inhibition: 20%
MM.1R, 0.222 µM
  target mRNA inhibition: 45%
MM.1R, 0.666 µM
  target mRNA inhibition: 77%
MM.1R, 1 µM
  target mRNA inhibition: 78%
MM.1R, 2 µM
  target mRNA inhibition: 91%

## GGAAGTTTACACTGGA (sugars kkdddddddddekeke, PS)
MM.1R, 0.074 µM
  target mRNA inhibition: 4%
MM.1R, 0.222 µM
  target mRNA inhibition: 15%
MM.1R, 0.666 µM
  target mRNA inhibition: 40%
MM.1R, 1 µM
  target mRNA inhibition: 64%
MM.1R, 2 µM
  target mRNA inhibition: 64%

## GGAAGTTTACACTGGA (sugars kkdddddddddkdkdk, PS)
MM.1R, 1 µM
  target mRNA inhibition: 24%

## GGAAGTTTACACTGGA (sugars kkdddddddddkekek, PS)
MM.1R, 1 µM
  target mRNA inhibition: 47%

## GGAAGTTTACACTGGA (sugars kkkdddddddddkeke, PS)
MM.1R, 0.074 µM
  target mRNA inhibition: 22%
MM.1R, 0.222 µM
  target mRNA inhibition: 46%
MM.1R, 0.666 µM
  target mRNA inhibition: 74%
MM.1R, 1 µM
  target mRNA inhibition: 78%
MM.1R, 2 µM
  target mRNA inhibition: 91%

## GGAAGTTTACACTGGA (sugars kkkddddddddkekek, PS)
MM.1R, 1 µM
  target mRNA inhibition: 43%

## GGACACTTTTAGAGAG (sugars k3 d10 k3, PS)
SK-MEL-28, 4 µM
  target mRNA inhibition: 62%

## GGACATTGGTACGGGA (sugars k3 d10 k3, PS)
SK-MEL-28, 4 µM
  target mRNA inhibition: 50%

## GGACCACATCTAATCC (sugars k3 d10 k3, PS)
MM.1R, 1 µM
  target mRNA inhibition: -12%

## GGACTAAGGACAGCTG (sugars k3 d10 k3, PS)
MM.1R, 1 µM
  target mRNA inhibition: 13%

## GGACTCCGGGAGCCTG (sugars k3 d10 k3, PS)
MM.1R, 1 µM
  target mRNA inhibition: -8%

## GGAGACACATACATTT (sugars k3 d10 k3, PS)
SK-MEL-28, 4 µM
  target mRNA inhibition: 22%

## GGAGATACTTGTACTG (sugars k3 d10 k3, PS)
MM.1R, 0.0625 µM
  target mRNA inhibition: 2%
MM.1R, 0.074 µM
  target mRNA inhibition: 16%
MM.1R, 0.222 µM
  target mRNA inhibition: 25%
MM.1R, 0.25 µM
  target mRNA inhibition: 26%
MM.1R, 0.666 µM
  target mRNA inhibition: 48%
MM.1R, 1 µM
  target mRNA inhibition: 55%
MM.1R, 2 µM
  target mRNA inhibition: 77%
MM.1R, 4 µM
  target mRNA inhibition: 87%
SK-MEL-28, 4 µM
  target mRNA inhibition: 66%

## GGAGTGATCTCTGTGG (sugars k3 d10 k3, PS)
SK-MEL-28, 4 µM
  target mRNA inhibition: 68%

## GGAGTGCAGGAGAGGC (sugars k3 d10 k3, PS)
SK-MEL-28, 4 µM
  target mRNA inhibition: 16%

## GGATAGATCTGTGGTA (sugars k3 d10 k3, PS)
SK-MEL-28, 4 µM
  target mRNA inhibition: 49%

## GGATTTCCGGGTGTGG (sugars k3 d10 k3, PS)
SK-MEL-28, 4 µM
  target mRNA inhibition: 61%

## GGCAACAGTTCAAGTA (sugars k3 d10 k3, PS)
SK-MEL-28, 4 µM
  target mRNA inhibition: 57%

## GGCACAATTCTCTGAG (sugars k3 d10 k3, PS)
SK-MEL-28, 4 µM
  target mRNA inhibition: 43%

## GGCACATCAATGTTTT (sugars k3 d10 k3, PS)
MM.1R, 1 µM
  target mRNA inhibition: 18% and 14%

## GGCACATCAATGTTTT (sugars kdddddddddkekeke, PS)
MM.1R, 1 µM
  target mRNA inhibition: 9% and 6%

## GGCACATGAGAAATCA (sugars k3 d10 k3, PS)
SK-MEL-28, 4 µM
  target mRNA inhibition: 33%

## GGCAGTTGTGCCGTCT (sugars k3 d10 k3, PS)
MM.1R, 1 µM
  target mRNA inhibition: -17%

## GGCATACAGTGTGATT (sugars k3 d10 k3, PS)
SK-MEL-28, 4 µM
  target mRNA inhibition: 25%

## GGCCCTGTCAAACTAT (sugars k3 d10 k3, PS)
SK-MEL-28, 4 µM
  target mRNA inhibition: 40%

## GGCCTCCCCAAGGCTA (sugars k3 d10 k3, PS)
SK-MEL-28, 4 µM
  target mRNA inhibition: 18%

## GGCCTCTGAGCAGAAC (sugars k3 d10 k3, PS)
SK-MEL-28, 4 µM
  target mRNA inhibition: 27%

## GGCCTGAAGCTTAGTT (sugars k3 d10 k3, PS)
MM.1R, 1 µM
  target mRNA inhibition: -5% and 6%

## GGCGAGTGGCGGGTAG (sugars k3 d10 k3, PS)
SK-MEL-28, 4 µM
  target mRNA inhibition: 8%

## GGCTAAACCTGGCACC (sugars k3 d10 k3, PS)
SK-MEL-28, 4 µM
  target mRNA inhibition: 40%

## GGCTACAGGCACGGCT (sugars k3 d10 k3, PS)
SK-MEL-28, 4 µM
  target mRNA inhibition: 42%

## GGCTAGCAGAGGTTCT (sugars k3 d10 k3, PS)
SK-MEL-28, 4 µM
  target mRNA inhibition: 51%

## GGCTAGCTGTATTTAT (sugars k3 d10 k3, PS)
SK-MEL-28, 4 µM
  target mRNA inhibition: 37%

## GGCTCCCTCAGGAACA (sugars k3 d10 k3, PS)
SK-MEL-28, 4 µM
  target mRNA inhibition: 19%

## GGCTCCTACATGTTTG (sugars k3 d10 k3, PS)
SK-MEL-28, 4 µM
  target mRNA inhibition: -46%

## GGCTCTTGATGTGAAC (sugars k3 d10 k3, PS)
MM.1R, 1 µM
  target mRNA inhibition: -12%

## GGGAATCCCTTATTAG (sugars k3 d10 k3, PS)
MM.1R, 1 µM
  target mRNA inhibition: 0%
